Experimental data as given in patent US20050282751A1, “Therapeutic agent for renal anemia” (Ajinomoto Co., Inc., priority 2004, published 2005).

Key:
[1] = system: patients with renal anemia; test: Clinical test: side effects; assay type: in vivo, human
Protocol: 1.3 g of an amino acid preparation (trade name: Argi U granules, a product of Ajinomoto Pharma Co. Ltd.) (1.0 g of […] in conservative stage accompanying renal anemia, whose age, hemocytometric results and results of general biochemical tests are shown in Table 1). The administration period was at the longest 18 weeks. The amount of each of hemoglobin, BUN (blood urea nitrogen), Cre (creatinine), Fe and erythropoietin in blood was determined by methods described below.

[2] = system: patients with renal anemia; test: Clinical test: erythropoietin in blood, ELISA; assay type: in vivo, human
Excerpt: (§1) 1.3 g of an amino acid preparation (trade name: Argi U granules, a product of Ajinomoto Pharma Co. Ltd.) (1.0 g of arginine) was orally administered in two portions everyday to each of 8 patients having an illness diagnosed as renal anemia (cases of chronic renal failure in conservative stage accompanying renal anemia, whose age, hemocytometric results and results of general biochemical tests are shown in Table 1). The administration period was at the longest 18 weeks. The amount of each of hemoglobin, BUN (blood urea nitrogen), Cre (creatinine), Fe and erythropoietin in blood was determined by methods described below.
Erythropoietin was determined by ELISA method.

[3] = system: patients with renal anemia; test: Clinical test: hemoglobin in patients with renal anemia, oral Argi U granules; assay type: in vivo, human
Protocol: The administration period was at the longest 18 weeks. The amount of each of hemoglobin, BUN (blood urea nitrogen), Cre (creatinine), Fe and erythropoietin in blood was determined by methods described below.
Hemoglobin was determined with an automatic blood cell analysis device.
The hemoglobin concentration of each case determined before and after the administration of the amino acid preparation is shown in Table 2.
For typical three patients, a change in hemoglobin concentration was given as ΔHb value (amount of change of hemoglobin) calculated by deducting the hemoglobin concentration before the administration of the amino acid preparation from the hemoglobin concentration after the administration thereof in FIG. 1.

[4] = system: patients with renal anemia; test: Clinical test: Cre (creatinine), enzymatic method; assay type: in vivo, human; details: effective cases 1, 2, 4 and 6
Excerpt: as §1
Cre was determined by an enzymatic method (sarcosine oxidase[…]POD method).

[5] = system: patients with renal anemia; details: conventional treatment with rHuEPO preparation; cited from earlier work

Compound | side effect ([1]; 9 administration cases) | side effect ([1]; further administration of 2.6 g/day for 1 month) | EPO concentration in blood relative to rHuEPO preparation treatment ([2]; L-arginine versus conventional rHuEPO treatment) | EPO concentration in blood, at the highest ([2]; after the administration of L-arginine) | Epo productivity (Epo concentration in blood) ([2]; all the effective cases) | Epo productivity (Epo concentration in blood) ([2]; the two ineffective cases) | anemia after discontinuance of administration ([3]; 2 cases in the 7 effective cases) | Hb after further administration ([3]; 2.6 g/day for 1 month, increased from 10.7 g/dl) | judgement of results ([3]; cases 1 to 7) | judgement of results ([3]; cases 8 and 9) | Hb after discontinuance of administration ([3]; other 3 effective cases) | renal function [4] | EPO concentration in blood [5]
N=C(N)NCCC[C@H](N)C(=O)O [L-arginine] | No evident side effect | no obvious side effect | less than ⅙ | about 20 mU/mL | increased | lowered | anemia became worse | 11.5 g/dL | effective | ineffective | Hb was not lowered | recovery of the renal function was recognized | 
rHuEPO preparation: recombinant erythropoietin preparation, conventional treatment of renal anemia |  |  |  |  |  |  |  |  |  |  |  |  | about 130 mU/mL
